Source: patent publication US10357036B2, “Compounds for controlling arthropods” (priority 2015, dated 2019)

Tests used:
Tetranychus urticae = Tetranychus urticae spray test, OP-resistant (bean leaf discs); format: in vivo; details: 100 g/ha; after 6 days
Method: After 6 days, the efficacy in % is determined.

Spodoptera frugiperda = Spodoptera frugiperda spray test; format: in vivo; details: after 7 days
Phaedon cochleariae = Phaedon cochleariae spray test; details: 100 g/ha; after 7 days
Boophilus microplus = Boophilus microplus injection test; format: in vivo; details: 20 μg/animal; assessed after 7 days
Method: • Solvent: dimethyl sulfoxide
1 μl of the active ingredient solution is injected into the abdomen of 5 engorged adult female cattle ticks (Boophilus microplus). The animals are transferred into dishes and kept in a climate-controlled room.

Ctenocephalides felis = Ctenocephalides felis oral test; format: in vivo; details: 100 ppm in citrated cattle blood; after 2 days
Method: • Solvent: Dimethyl Sulfoxide
To produce a suitable active ingredient formulation, 10 mg of active ingredient are mixed with 0.5 ml of dimethyl sulfoxide. Dilution with citrated cattle blood gives the desired concentration.
About 20 unfed adult cat fleas (Ctenocephalides fells) are placed into a chamber which is closed at the top and bottom with gauze. A metal cylinder whose bottom end is closed with parafilm is placed onto the chamber. The cylinder contains the blood/active ingredient formulation, which can be imbibed by the fleas through the parafilm membrane.

| Compound | efficacy (Tetranychus urticae) | efficacy (Spodoptera frugiperda; 100 g/ha) | efficacy (Phaedon cochleariae) | efficacy (Spodoptera frugiperda; 20 g/ha) | efficacy (laying of fertile eggs) (Boophilus microplus) | efficacy (rate of extermination) (Ctenocephalides felis) |
| --- | --- | --- | --- | --- | --- | --- |
| CC(=O)N(C)Cc1cc(-c2cnn(-c3c(F)cc(C(F)(C(F)(F)F)C(F)(F)F)cc3Br)c2)ccc1Cl [Ia-100] | 100% | 100% | 100% | – | – | – |
| O=C(CC(F)(F)F)NCc1cccc(-c2cnn(-c3c(Cl)cc(C(F)(C(F)(F)F)C(F)(F)F)cc3Cl)c2)c1 [Ia-21] | – | 100% | 100% | – | – | – |
| CCC(=O)NCc1cc(-c2cn(-c3c(Cl)cc(C(F)(C(F)(F)F)C(F)(F)F)cc3Cl)cn2)ccc1F [I-T2-03] | – | – | 100% | – | – | – |
| CCC(=O)NCc1cc(-c2cnn(-c3c(Cl)cc(C4(C(F)(F)F)CC4)cc3Cl)c2)ccc1F [Ia-123] | – | 83% | 100% | – | – | – |
| O=S(=O)(NCc1cc(-c2cnn(-c3c(Cl)cc(C(F)(C(F)(F)F)C(F)(F)F)cc3Cl)c2)ccc1Cl)c1ccccc1 [Ic-05] | – | 100% | 100% | – | – | – |
| CCC(=O)NCc1cccc(-c2cnn(-c3c(Cl)cc(C(F)(C(F)(F)F)C(F)(F)F)cc3C(F)F)c2)c1 [Ia-39] | 100% | 100% | 100% | – | – | – |
| CCC(=O)NCc1cc(-c2cnn(-c3c(Cl)cc(C(F)(C(F)(F)F)C(F)(F)F)cc3Cl)c2)ccc1Br [Ia-166] | 100% | 100% | 100% | – | – | – |
| CCC(=O)NCc1cc(-c2cnn(-c3c(Cl)cc(C(F)(C(F)(F)F)C(F)(F)F)cc3C#N)c2)ccc1Cl [Ia-114] | – | 100% | 100% | – | – | – |
| CC(=O)N(C)Cc1cc(-c2cnn(-c3c(Cl)cc(C(F)(C(F)(F)F)C(F)(F)F)cc3OC(F)(F)F)c2)ccc1Cl [Ia-85] | 100% | 100% | 100% | – | – | – |
| Cc1cc(C(F)(C(F)(F)F)C(F)(F)F)cc(Cl)c1-n1cc(-c2cccc(CNC(=O)C3CC3)c2)cn1 [Ia-70] | – | – | 100% | – | – | – |
| CC(=O)NCc1cccc(-c2cnn(-c3c(Cl)cc(C(F)(C(F)(F)F)C(F)(F)F)cc3Cl)c2)c1 [Ia-09] | 90% | 100% | 100% | – | – | – |
| CCC(=O)NCc1cc(-c2cnn(-c3c(Cl)cc(C(F)(C(F)(F)F)C(F)(F)F)cc3C#N)c2)ccc1F [Ia-103] | – | 100% | 100% | – | – | – |
| CC(=O)N(C)Cc1cc(-c2cnn(-c3c(Cl)cc(C(F)(C(F)(F)F)C(F)(F)F)cc3Cl)c2)c(F)cc1Cl [Ia-110] | – | 100% | 100% | – | – | – |
| O=C(NCc1cc(-c2cnn(-c3c(Cl)cc(C(F)(C(F)(F)F)C(F)(F)F)cc3Cl)c2)ccc1Cl)C(F)(F)F [Ia-120] | 100% | 100% | 100% | – | – | – |
| CC(=O)NCc1cc(-c2cnn(-c3c(Cl)cc(C(F)(C(F)(F)F)C(F)(F)F)cc3Cl)c2)ccc1Br [Ia-164] | 100% | 100% | 100% | – | – | – |
| CC(=O)NCc1cc(-c2cnn(-c3c(F)cc(C(F)(C(F)(F)F)C(F)(F)F)cc3Br)c2)ccc1Cl [Ia-92] | 100% | 100% | 100% | – | – | – |
| CC(=O)N(C)Cc1cc(-c2cnn(-c3c(Cl)cc(C(F)(C(F)(F)F)C(F)(F)F)cc3Cl)c2)ccc1Br [Ia-165] | 90% | 100% | 100% | – | – | – |
| CC(=O)NCc1cc(-c2cnn(-c3c(Cl)cc(C(F)(C(F)(F)F)C(F)(F)F)cc3OC(F)(F)F)c2)ccc1F [Ia-06] | – | 100% | 100% | – | – | – |
| CCC(=O)NCc1cccc(-c2cnn(-c3c(Cl)cc(C(F)(C(F)(F)F)C(F)(F)F)cc3C#N)c2)c1 [Ia-97] | – | – | 100% | – | – | – |
| CCC(=O)NC(C)c1cc(-c2cnn(-c3c(Cl)cc(C(F)(C(F)(F)F)C(F)(F)F)cc3Cl)c2)ccc1F (stereo not shown) [Ia-50] | – | 100% | – | – | – | – |
| CCN(Cc1cc(-c2cnn(-c3c(Cl)cc(C(F)(C(F)(F)F)C(F)(F)F)cc3Cl)c2)ccc1Cl)C(C)=O [Ia-109] | 100% | 100% | 100% | – | – | – |
| CC(=O)NCc1cccc(-c2cnn(-c3c(Cl)cc(C(F)(C(F)(F)F)C(F)(F)F)cc3Cl)c2)c1F [Ia-153] | – | – | 100% | – | – | – |
| CN(Cc1cc(-c2cnn(-c3c(Cl)cc(C(F)(C(F)(F)F)C(F)(F)F)cc3Cl)c2)ccc1Cl)C(=O)C1CC1 [Ia-24] | – | 100% | 100% | – | – | – |
| C[S+]([O-])c1cc(C(F)(C(F)(F)F)C(F)(F)F)cc(Cl)c1-n1cc(-c2ccc(F)c(CNC(=O)C3CC3)c2)cn1 (stereo not shown) [Ia-43] | 90% | – | 100% | 83% | – | – |
| CC(=O)NCc1cc(-c2cnn(-c3c(Cl)cc(S(=O)(=O)C(F)(F)F)cc3Cl)c2)ccc1Cl [Ia-88] | 100% | 83% | 100% | – | 100% | 100% |

| Compound | efficacy (Tetranychus urticae) | efficacy (Spodoptera frugiperda; 100 g/ha) | efficacy (Phaedon cochleariae) | efficacy (Spodoptera frugiperda; 20 g/ha) | efficacy (laying of fertile eggs) (Boophilus microplus) | efficacy (rate of extermination) (Ctenocephalides felis) |
| --- | --- | --- | --- | --- | --- | --- |
| CC(=O)N(C)Cc1cc(-c2cnn(-c3c(Cl)cc(C(F)(C(F)(F)F)C(F)(F)F)cc3Br)c2)ccc1Cl [Ia-99] | 100% | 100% | 100% | – | – | – |
| CC(=O)NC(C)c1cc(-c2cnn(-c3c(Cl)cc(C(F)(C(F)(F)F)C(F)(F)F)cc3Cl)c2)ccc1F (stereo not shown) [Ia-49] | – | 100% | 100% | – | – | – |
| CCC(=O)NCc1cc(-c2cnn(-c3c(Cl)cc(C(F)(C(F)(F)F)C(F)(F)F)cc3Cl)c2)c(F)cc1Cl [Ia-111] | 100% | 100% | 100% | – | – | – |
| CC(C)(C)C(=O)NCc1cc(-c2cnn(-c3c(Cl)cc(C(F)(C(F)(F)F)C(F)(F)F)cc3C(F)F)c2)ccc1F [Ia-62] | – | – | 100% | – | – | – |
| CC(=O)NCc1cc(-c2cnn(-c3c(Cl)cc(C4(C(F)(F)F)CC4)cc3Cl)c2)ccc1F [Ia-124] | – | – | 100% | – | – | – |
| CCC(=O)N(C)Cc1cc(-c2cnn(-c3c(Cl)cc(C(F)(C(F)(F)F)C(F)(F)F)cc3OC(F)(F)F)c2)ccc1F [Ia-27] | 100% | 100% | 100% | – | – | – |
| CCCN(Cc1cc(-c2cnn(-c3c(Cl)cc(C(F)(C(F)(F)F)C(F)(F)F)cc3Cl)c2)ccc1Cl)C(C)=O [Ia-112] | 90% | 100% | 100% | – | – | – |
| CCC(=O)NCc1cc(-c2cn(-c3c(Cl)cc(C(F)(C(F)(F)F)C(F)(F)F)cc3Cl)nn2)ccc1Cl [I-T7-02] | – | 100% | 100% | – | – | – |
| CS(=O)(=O)c1cc(C(F)(C(F)(F)F)C(F)(F)F)cc(Cl)c1-n1cc(-c2ccc(F)c(CNC(=O)C3CC3)c2)cn1 [Ia-44] | 100% | – | 100% | – | – | – |
| CC(=S)N(C)Cc1cc(-c2cnn(-c3c(Cl)cc(C(F)(C(F)(F)F)C(F)(F)F)cc3Cl)c2)ccc1Cl [Ia-163] | 100% | 83% | 100% | – | – | – |
| CC(=O)NCc1cc(-c2cn(-c3c(Cl)cc(C(F)(C(F)(F)F)C(F)(F)F)cc3Cl)cn2)ccc1F [I-T2-01] | – | – | 100% | – | – | – |
| CCC(=O)N(C)Cc1cc(-c2cnn(-c3c(Cl)cc(C(F)(C(F)(F)F)C(F)(F)F)cc3OC(F)(F)F)c2)ccc1Cl [Ia-87] | 100% | 100% | 100% | – | – | – |
| CCC(=O)N(C)Cc1cc(-c2cnn(-c3c(Cl)cc(C(F)(C(F)(F)F)C(F)(F)F)cc3Cl)c2)ccc1Br [Ia-167] | 100% | 100% | 100% | – | – | – |
| CCC(=O)NCc1cc(-c2cnn(-c3c(Cl)cc(C(F)(C(F)(F)F)C(F)(F)F)cc3Br)c2)ccc1Cl [Ia-89] | 90% | 100% | 100% | – | – | – |
| CC(=O)N(C)Cc1cc(-c2cnn(-c3c(Cl)cc(C(F)(C(F)(F)F)C(F)(F)F)cc3Cl)c2)ccc1C(F)(F)F [Ia-77] | – | 100% | 100% | – | 100% | 100% |
| N-[1-(2-chloro-5-{1-[2,6-dichloro-4-(1,1,1,2,3,3,3-heptafluoropropan-2-yl)phenyl]-1H-pyrazol-4-yl}phenyl)ethyl]propanamide [Ia-47] | – | 83% | 100% | – | – | – |
| O=C(NCc1cc(-c2cn(-c3c(Cl)cc(C(F)(C(F)(F)F)C(F)(F)F)cc3Cl)nn2)ccc1Cl)C1CC1 [I-T7-03] | – | 100% | 100% | – | – | – |
| CCC(=O)NCc1cc(-c2cnn(-c3c(Cl)cc(C(F)(C(F)(F)F)C(F)(F)F)cc3OC(F)(F)F)c2)ccc1Cl [Ia-86] | – | 100% | 100% | – | – | – |
| O=C(NCc1cc(-c2cnn(-c3c(Cl)cc(C(F)(C(F)(F)F)C(F)(F)F)cc3Cl)c2)ccc1Cl)C(F)F [Ia-119] | 100% | 100% | 100% | – | – | – |
| CCC(=O)NCc1cc(-c2cnn(-c3c(F)cc(C(F)(C(F)(F)F)C(F)(F)F)cc3Br)c2)ccc1Cl [Ia-94] | – | 100% | 100% | – | – | – |
| CCC(=O)NCc1cc(-c2cnn(-c3c(Cl)cc(C(F)(C(F)(F)F)C(F)(F)F)cc3C#N)c2)ccc1C [Ia-101] | – | 100% | 100% | – | – | – |
| CCC(=O)NCc1cc(-c2cnn(-c3c(Cl)cc(C(F)(C(F)(F)F)C(F)(F)F)cc3OC(F)F)c2)cnc1Cl [Ia-160] | 100% | 100% | 100% | – | – | – |
| CCC(=O)N(C)Cc1cc(-c2cnn(-c3c(Cl)cc(C(F)(C(F)(F)F)C(F)(F)F)cc3Cl)c2)ccc1C(F)(F)F [Ia-78] | – | – | 100% | – | – | – |
| CCC(=O)NCc1cc(-c2cnn(-c3c(Cl)cc(C(F)(C(F)(F)F)C(F)(F)F)cc3Cl)c2)ccc1C [Ia-81] | 100% | 100% | – | – | – | – |
